Consider one compound from US10265276B2, “Pharmaceutical composition for preventing or treating arthritis or inflammatory disease containing 2-methoxy-4-(3-(4-methoxyphenyl)propyl-1-en-1-yl)phenol as active ingredient” (CHUNGBUK NATIONAL UNIVERSITY INDUSTRY-ACADEMIC COOPERATION …, priority 2015, dated 2019).

Test [1] concerns CAIA-induced C57BL/6 mice. As to the kind of experiment: Collagen antibody-induced arthritis (CAIA) model. It is filed as in vivo, mouse. As for the experimental part: 14. Induction of rheumatoid arthritis in C57BL/6 mice: To induce rheumatoid arthritis, anti-collagen-II mAbs (CII-Ab, Arthrogen-CIA Arthritogenic Monoclonal Antibody, #53010: Chondrex, Inc., WA, USA) were intraperitoneally (i.p.) injected into 7-week-old male mice on the first day, and 50 μg of LPS was injected on the third day. To evaluate the severity of arthritis, a scoring system was applied according to the criteria.
0. No erythema and swelling are observed.
1. Slight erythema is observed in tarsals and ankle joints.
2. Slight erythema and swelling are observed from an ankle joint to the midfoot.
3. Erythema and swelling extending from ankle joints to the metatarsals are observed.
4. Erythema and severe swelling were observed throughout the ankles, feet, and fingers.
The sum of final scores was recorded daily until the sum reached 16. On the 18th day, each of the mice was anesthetized, and then located on a radiographic view box. Thereafter, a location of each of the mice was adjusted so that the mouse was disposed at a distance of 90 cm from an X-ray source. The radioanalysis on hind legs with arthritis was performed by irradiating the hind legs at […] for 0.01 seconds using an X-ray machine (BLD-150RK, Hradec Kralove, Czech Republic).
15. Immunohistochemical assay: An immunohistochemical assay was carried out using an avidin-biotin-peroxidase method known in the art. Each of joint tissue samples collected from the mice was fixed with formalin, and embedded in paraffin. These samples were continuously microtomed into sections with a thickness of 4 μm. Each of the sections was stained with haematoxylin/eosin (H&E), anti-COX-2 and anti-iNOS antibodies (Caymen Chemical, Ann Arbor, Mich.).
Referring to FIG. 10(A), MMPP (5 mg/kg, p.o.) (dissolved in 100 μL of PBS including 0.5 μL of DMSO), a vehicle (a negative control), or indomethacin (5 mg/kg, p.o./dissolved in […] of PBS after the dissolution) was administered daily to 7-week-old male C57BL/6 mice for 18 days.

Another test relates to NF-κB. As to the kind of experiment: EMSA and Western blotting of the NF-κB pathway in LPS-treated RAW 264.7 cells. It is filed as cell-based, mouse. Here is the method:
10. EMSA assay (Electromobility shift assay): RAW 264.7 cells were cultured for 24 hours to perform an EMSA assay. The relative density of a protein band was scanned using MyImage, and qualitatively analyzed using Labworks 4.0 software (UVP, Inc.).
12. Western blotting assay: A whole cell lysate, a cytosolic extract, and a nuclear extract were obtained. SDS-PAGE and Western blotting assays were carried out as disclosed in published Documents 1 and 2. Simply speaking, the cells were seeded in a 6-well plate at a density of 5×10^5 cells/well, and cultured for 24 hours. Thereafter, the cells were treated with MMPP or DMSO for 24 hours. After the treatment, the cells were washed twice with PBS, and then lyzed. Proteins of the lyzed cells were separated on 10 to 15% SDS-PAGE. The proteins were transferred to a PVDF membrane, and the PVDF membrane was blocked at room temperature for 2.5 hours in a TB S/T buffer containing 5% skim milk. The membrane to which the proteins were transferred was analyzed using, as primary antibodies, murine monoclonal antibodies against Cdk2, Cdk4, Cdk6, cyclin B1, cyclin D1, cyclin E1, Bcl-2, Bax, caspase-3, caspase-8, STAT3, phspho-STAT3, (3-actin, and histone hl. Expression of the proteins was visualized using a chemiluminescence reagent (Amersham Pharmacia Biotech, Inc., Buckinghamshire, UK), and measured using a digital chemiluminescence imaging system equipped with a CCD camera (Fusion-FX, Fisher BioTech, Ltd., Wembley, Australia).
RAW 264.7 cells were treated with LPS alone or a combination of LPS and MMPP for 30 minutes, and the DNA binding activities of NF-κB and STAT3 were examined using an electrophoretic mobility shift assay (EMSA). Also, the same amount of the total proteins (20 μg/Lane) was subjected to 10% SDS-PAGE, and STAT3, P-STAT3, p50, p65, IKK, lκB, and p-lκB were detected through Western blotting. A (3-actin protein or histone H was used as the control.

The subject of the next test is iNOS and COX-2. As to the kind of experiment: Western blotting of iNOS and COX-2 expression in LPS-induced RAW 264.7 cells. It is filed as cell-based, mouse. As to conditions: LPS and MMPP. Set-up: dose or concentration left out as unconfirmed.
Where [2] appears, read: 5 mg/kg, p.o. daily, last (18th) day.
Setting [3] is: LPS-induced, co-treated with MMPP.

As to `COc1ccc(C/C=C/c2ccc(O)c(OC)c2)cc1` [MMPP, 2-methoxy-4-(3-(4-methoxyphenyl)prop-1-en-1-yl)phenol], in test [1] (5 mg/kg), the “degrees of bone destruction and fibrosis in ankle joints (histopathologic evaluation)” value is “remarkably reduced”; the “tissue edema and bone destruction of hind legs (radiographic inspection)” value was “significantly reduced”. Moreover, in test [1] (setting [2]), the clinical score entry is “approximately 4.67” and the “clinical score lower than that of the CAIA group” value is recorded as 66.5%. Moreover, the “anti-arthritic effect in CAIA model” value in test [1] (mouse, in vivo) is “had an anti-arthritic effect”. For the same compound, in the test on NF-κB, the “LPS-induced phosphorylation of IKKb and IKKa” value is given as “inhibited”. In the test on NF-κB (setting [3]), the “DNA binding activity and transcriptional activity of NF-κB” value is “reduced in a concentration-dependent manner”; the IκB degradation result was “reduced in a concentration-dependent manner”; the “nuclear translocation of NF-κB subunits p65 and p50” value is listed as “reduced in a concentration-dependent manner”. Also, in the test with iNOS and COX-2, the “iNOS and COX-2 expression” value is reported as “reduced in a concentration-dependent manner”.
